Test: Human HepG2 cell viability assay in 384 well format
Assay type: toxicity, cell-based
Design: dose 125 nL, time 70.5 hour; cytotoxicity at 70.5 h: concentration not given beside the values
Conditions: HepG2 cells, read-out: Inhibition

SMILES	cytotoxicity at 70.5 h [%]
O=C(NCCN1CCCCC1)c1cccc(Cl)c1Cl	-8.61
Cc1occc1CNC(=O)C1(C)CCCN(C(=O)c2ccccc2)C1 (configuration not stated)	0.298
COc1cc(C(=O)Nc2c(C)noc2C)ccc1C	1.7
CCC(O)CN1CCN(C(=O)c2cc(Cl)cc3cccnc23)CC1 (configuration not stated)	18.2
O=C(NCc1nnc2n1CCC2)c1ccc(C2CCCO2)s1 (configuration not stated)	-4.87
COC(=O)N1CCC(NC(=O)N2CCCC2c2ccsc2)CC1 (configuration not stated)	-4.05
NC(=O)C1=NN2C(=NS(=O)(=O)c3ccccc32)N1	-106
Cn1ccc(C(=O)NCCOc2ccc(C(C)(C)C)cc2)cc1=O	-4.21
COCC1CC2(CCN(C(C)=O)CC2)CN1Cc1csc(C)n1 (configuration not stated)	-4.16
Cc1nc(-c2ccc(S(=O)(=O)N3CCC4(CC3)OCCO4)cc2)co1	-7.29
COCc1noc(CN2CC(=O)N(C)c3ccccc3C2=O)n1	0.208
COCCn1c2c(ccc1=O)CC(NCc1cccnc1OC)CC2 (configuration not stated)	-13.6
Cc1nnc([C@@H]2C[C@H]3CN(C(=O)C4CC4)C[C@H]3O2)[nH]1	-5.22
Cc1nc(COC[C@@]23CCC[C@@H]2CN(CC2CCOCC2)C3)cs1	-9.04
Cc1noc(-c2ccc(Oc3cccc(CN4CCCC4)c3F)nc2)n1	16.7
Cc1cc(C2CCC2)nc(N(C)Cc2cnccn2)n1	-6.23
CC(O)CN1CCN(C(=O)Cc2ccccc2Cl)CC1 (configuration not stated)	-5.1
CCN(Cc1cc(F)c(OC)c(Cl)c1)Cc1noc(CC(C)C)n1	-10.5
CN(C)S(=O)(=O)c1ccc(CNC(=O)C2CC(=O)N(C(C)(C)C)C2)cc1 (configuration not stated)	-1.42
Cn1cc(Nc2cccc(C(=O)N(CC(N)=O)C3CCCC3)c2)cn1	-3.71
CN(C)c1ncc(CN2CCOC(C(=O)Nc3ccccc3)C2)cn1 (configuration not stated)	-6.09
CC(c1ccon1)N(C)C(=O)C1CCN(C(=O)C2CC2)CC1 (configuration not stated)	-4.84
CN(Cc1n[nH]c2c1CCCC2)C(=O)c1cccc(CCC(C)(C)O)c1	-4.47

SMILES	cytotoxicity at 70.5 h [%]
CC(C)(C)OC(=O)N1CCC[C@H](NCC2CCOCC2)C1	-0.369
CC(C)(C)n1ncc2c1NC(=O)CSC2c1ccc2c(c1)OCO2 (configuration not stated)	2.42
NC(=O)C(NC(=O)COC1CCCCC1)c1ccccc1 (configuration not stated)	-4.15
COC(=O)c1cc(OCC2CCC2)cc(C(=O)N[C@@H]2CCCNC2)c1	-18.2
CN1CCN(c2ncnc3c2CCN(S(=O)(=O)C2CC2)CC3)CC1	-11.6
COc1ccc(CN2C[C@@H]3OCCN(C)[C@@H]3C2)cc1	-4.77
COC(=O)CC(NC(=O)c1cccc(N2CCCC2=O)c1)c1cccs1 (configuration not stated)	4.95
O=S(=O)(c1cccs1)N1CCN2C[C@H](OCC3CC3)C[C@H]2C1	-3.74
Cc1nc(N2CCCC2)ncc1-c1cc(O)nc(NCC2CCCO2)n1 (configuration not stated)	-5.1
COCCO[C@@H]1CCN(Cc2csc(C)n2)[C@H]1Cc1ccccc1	-8.53
CN(CC(O)CO)c1nc(-c2cccnc2)nc2c1CCNC2 (configuration not stated)	-17.2
Cc1nn(-c2ccccn2)c2c1C(c1cnn(C)c1)SCC(=O)N2 (configuration not stated)	-27.3
CCc1cc(N2CCC(Nc3ccc(Cl)cn3)CC2)ncn1	12.5
CC(=O)N1CCCC1c1csc(Nc2cnccn2)n1 (configuration not stated)	-4.91
O=C(c1cccc(O)c1)N1CCN(Cc2nnc(C3CCC3)o2)CC1	23.6
CC(C)CN1CCC(NC(=O)c2ccc(Cl)cc2Cl)CC1	-1.21
Cc1csc(N2CCCN(C(=O)c3cccs3)CC2)n1	3.15
Cc1nc(CSCCC(=O)NCC(=O)NC(C)C)cs1	1.26
Cc1nc(CN2CCCC2c2[nH]ncc2C(=O)N(C)C)cs1 (configuration not stated)	-2.79
Cc1nn(C)c(C)c1CCC(=O)N(C)Cc1ccc(C#N)cc1	1.66
CN1CCN(C2COC3(CCN(Cc4ccc(F)cc4)CC3)C2)CC1 (configuration not stated)	-11.8
CSc1ccc(CNC(c2ccc(F)cc2)c2nccn2C)cc1 (configuration not stated)	0.212
CC(C)(C)c1noc(OCC(=O)NC2CCCC2)n1	0.264

SMILES	cytotoxicity at 70.5 h [%]
CC(C)c1cc(N[C@H](C(N)=O)C(C)C)n2nccc2n1	-4.75
Cc1cn2c(n1)CCC(NC(=O)c1csc(C(C)C)n1)C2 (configuration not stated)	-0.273
COCCN1CCC2(C1)CN(c1ncc(F)cn1)C2	0.704
O=C(NCCCn1nc2ccccn2c1=O)NC(C1CC1)C1CC1	-16.5
Cn1cc(-c2cnc(-c3ccnn3C)nc2)cc1C(=O)N1CCCC1	-4.76
Cc1nn(C)c2nc(-c3ccccn3)nc(NC[C@@H]3CCCO3)c12	2.37
Cn1cc(C2COC3(CCN(C(=O)c4cnccn4)CC3)C2)cn1 (configuration not stated)	-12.7
CN1CCN(C(=O)C[C@@H]2COC[C@H]3CN(c4ccncn4)C[C@@H]23)CC1	12.2
N#CC1(NC(=O)c2nccc3ccccc23)CCC1	-8.96
O=C(c1ccc(OCC2CC2)nc1)N1CCCC(n2cccn2)C1 (configuration not stated)	-7.07
Cc1cc2nccc(C3CCN(C(=O)c4ccccc4F)CC3)n2n1	-4.04
Cc1cnccc1NC(=O)CCc1ccsc1	-13.1
Fc1cnc(N2CCCn3c(nnc3Cn3ccnc3)C2)nc1	-4.74
Cc1nn(C)cc1-c1cc(-c2cn(C)nc2C)n(CC(=O)NC2CC2)n1	-7.88
CCc1nc(CN(C)C2CCN(CCn3cccn3)C2)no1 (configuration not stated)	-15.3
CCn1c(C)nnc1CN(C)C1CCN(Cc2ccccn2)C1 (configuration not stated)	-2.44
Cc1ccc2cc(CNCCCO)c(=O)[nH]c2c1	-2.37
COCCNC(=O)[C@H]1C[C@@H]2CCN(CCc3ccccc3)C[C@H]2O1	-11.2
CCCn1ncc(C(=O)N2CCC(N3CCCCC3)CC2)c1C	-11.6
Cc1cc(C)cc(N2CC(c3nnc(N)s3)CC2=O)c1 (configuration not stated)	3.73
O=C(O)CN(C(=O)c1ccccc1)[C@H]1C[C@H]2CCOC[C@H]2C1	-10.1
CCC1CCCN(CC(=O)Nc2oc(C)c3c(C)n[nH]c(=O)c23)C1 (configuration not stated)	-9.67
O=C(c1coc(CN2CCN(c3ccccc3F)CC2)n1)N1CC=CC1	15.2

SMILES	cytotoxicity at 70.5 h [%]
CNC(=O)[C@@H]1C[C@H]2CN(Cc3c(C)noc3C)C[C@H]2N1C(C)C	-7.3
Cc1cc(-c2ccc(=O)n(C3CCN(S(=O)(=O)N(C)C)CC3)n2)c(C)o1	3.38
O=C(Cc1ccsc1)NC1CCc2c(ccc(=O)n2CC2CC2)C1 (configuration not stated)	12
CN(Cc1nc(CS(C)(=O)=O)no1)c1ccccc1	-12.6
O=C1NCC2(CCN(C(=O)c3ccc4c(c3)CCCO4)CC2)O1	-1.35
O=C(NCC1CC1)C1CSCN1S(=O)(=O)c1ccccc1 (configuration not stated)	-15.1
O=S(=O)(NCC1OCCc2cn(CC3CCOCC3)nc21)C1CC1 (configuration not stated)	-3.73
CC(NC(=O)C1CCCC1)c1nncn1C(C)C (configuration not stated)	9.12
Cc1cccc(CN2CCN3C[C@H](Oc4cccnc4)C[C@H]3C2)n1	-1.7
CCc1ccc(NC(=O)c2cnc(N3CCCC3)nc2C)cc1	-2.19
Cc1cccc(CN2CCC(c3nccn3CC(N)=O)CC2)n1	22.7
COc1ccccc1CN(CC1CCCO1)C(=O)c1scnc1C (configuration not stated)	-12.6
COc1ccc(S(=O)(=O)N2CC(CC(=O)O)c3ccccc32)cc1 (configuration not stated)	-0.927
CCN1CCN(C(=O)c2cnn(-c3ccccc3Cl)c2)CC1	-8.2
COc1ccc2c(c1)CC(NCc1cccc(CO)c1)CC2 (configuration not stated)	-6.72
CC(C)(C)c1ncc(C(=O)NCCn2ccnc2)s1	24.5
COc1nc2ccn(CCNc3cc(C)ccn3)c(=O)c2cc1C#N	-3.78
COc1ccc2c(c1)OCC(CNC(=O)NC(C)(C)C)C2 (configuration not stated)	-0.00962
O=C1NCCCC12CCN(Cc1ccc(-c3ccccc3)s1)C2 (configuration not stated)	7.11
N#Cc1cc(S(N)(=O)=O)ccc1NC1CCc2c(F)cccc21 (configuration not stated)	-10.4
CN(C)c1ccc(C(=O)N2C[C@@H](CN3CCCCC3)[C@@H](CO)C2)cc1	-4.9
Cc1ccc(CNCc2cccc3cn[nH]c23)c(OC2CCOC2)c1 (configuration not stated)	3.6
Cc1ccc(CN(C)C(=O)CN2CCCCC2Cn2cncn2)cc1 (configuration not stated)	22.7

SMILES	cytotoxicity at 70.5 h [%]
Cc1cc(C)cc(NC(=O)CN2CCCC(n3cncn3)C2)c1 (configuration not stated)	-3.52
CCNC(=O)NC(=O)CN1CCOC(c2ccccc2Cl)C1 (configuration not stated)	-9.68
CC(C)N(CCNC(=O)c1[nH]nc2ccc(I)cc12)C(C)C	-1.97
COCCCC1(C(=O)O)CCCN(C(=O)c2ccc(Cl)cc2F)C1 (configuration not stated)	-10.9
Cc1nc(CN(C)C2CCN(CC(=O)N3CCOCC3)C2)no1 (configuration not stated)	-12.6
CN(Cc1nnc(C2CC2)n1C)S(=O)(=O)c1ccc(F)c(C#N)c1	-23.4
Cc1ccc(Cl)cc1NS(=O)(=O)c1cc(C(N)=O)n(C)c1	-0.833
O=C(O)c1ccc(N2CCC(Oc3cccc(F)c3)CC2)nc1	14.5
COCCN1CCC2(CC1)CC(COC)N(c1ncccn1)C2 (configuration not stated)	-9.91
Cc1occc1C(=O)N1CCO[C@H]2[C@H](Oc3cccnc3)CC[C@@H]21	14.6
O=C1CC[C@H](C(=O)N(CCc2ccccc2)C2CCOC2)N1 (some centres not stated)	24.8
CN(CCN1CCCCCC1)c1nccc(N2CCC(O)C2)n1 (configuration not stated)	-6.64
CCC(C(=O)NCCc1ccn(-c2ccccc2)n1)N1CCCC1=O (configuration not stated)	-5.95
O=C(Cn1cnnn1)NCC1(O)CCCc2ccccc21 (configuration not stated)	-6.92
Cc1cc(NC(=O)CCN2CCn3c(nnc3C3CC3)C2)no1	-11.7
CC(C)(CNC(=O)C1CCCCN1S(C)(=O)=O)N1CCOCC1 (configuration not stated)	38
CCS(=O)(=O)NCC(=O)N1CCC(c2cc3ccccc3[nH]2)CC1	1.52
O[C@@H]1C[C@@H](c2nc(Cc3ccccc3)no2)N(Cc2ncc[nH]2)C1	9.72
Cc1nccn1-c1ccc(C(=O)NCC(F)(F)F)nn1	-1.99
Cn1ccc(CN2CCOCC23CCNCC3)n1	-6.05
